Laboratory results: patent publication US20250195521A1 (Revolution Medicines, Inc., priority 2020, published 2025)
Like-named read-outs stand apart in the source and are kept apart here.

Experiments:
KRAS G12S = KRAS G12S (Homo sapiens (Human), UniProt P01116+P62937, G12S); assay: Ras-Raf disruption/FRET/MOA assay (BRAF RBD, Cyclophilin A); type: biochemical; conditions: read-out: KRAS G12S FRET IC50
Procedure, shortened: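 His6-K-Ras-GMPPNP (12.5 nM), GST-BRAF RBD (50 nM) and tagless Cyclophilin A (25 μM) were combined in 25 mM HEPES pH 7.3 with 100 mM NaCl, 5 mM MgCl2, 0.1% BSA and 0.002% Tween20, with compound as a 10-point 3-fold series from 30 μM final, then incubated 3 h at 25° C.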

NRAS G12C = NRAS G12C (Homo sapiens (Human), UniProt P01111+P62937, G12C); assay: as above; type: biochemical; conditions: read-out: NRAS G12C FRET data IC50
NRAS G12C, sequence (P01111 whole entry G12C): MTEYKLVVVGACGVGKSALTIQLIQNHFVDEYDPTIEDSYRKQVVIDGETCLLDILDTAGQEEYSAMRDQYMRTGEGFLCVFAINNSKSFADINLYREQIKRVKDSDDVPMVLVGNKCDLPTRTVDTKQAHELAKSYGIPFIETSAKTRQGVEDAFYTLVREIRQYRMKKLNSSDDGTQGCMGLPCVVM
NRAS G12C, sequence (P62937 whole entry): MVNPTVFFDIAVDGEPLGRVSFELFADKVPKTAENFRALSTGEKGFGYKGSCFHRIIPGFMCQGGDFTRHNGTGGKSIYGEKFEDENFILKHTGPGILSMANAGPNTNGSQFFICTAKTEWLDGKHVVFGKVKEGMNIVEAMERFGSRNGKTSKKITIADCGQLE
Procedure, shortened: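 TR-FRET readout: anti-His Eu-W1024 (10 nM) and anti-GST allophycocyanin (50 nM) added after 3 h, 25° C compound incubation, then 1.5 h more. Decrease in FRET ratio versus DMSO wells marks Ras:RAF disruption; IC50 reported.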

[1] = tested on: NCI-H358 cells (K-Ras G12C); assay: CellTiter-Glo cell viability, NCI-H358; type: cell-based, human; conditions: K-Ras G12C, 5-day treatment, read-out: H358 Cell Viability IC50
Procedure, shortened: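 Compounds dispensed directly onto seeded cells; on day 5 plates equilibrated ~30 min to room temperature and luminescence read. Signal normalized to DMSO average (%) and fitted by four-parameter logistic.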

[2] = tested on: K-Ras G12C (NCI-H358 cells); assay: Potency assay: pERK in NCI-H358 cells; type: cell-based, human; conditions: Homo sapiens; NCI-H358 cells, 4 hours; read-out: pERK EC50 (H358 KRAS G12C)
Procedure, shortened: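 Cells plated the day before were exposed for 4 h at 37° C, 5% CO2 to a 10-point, 3-fold DMSO dilution series (10 mM top stock), in duplicate. Phospho-ERK was read by AlphaLISA SureFire Ultra or by In-Cell Western with DRAQ5 DNA stain, and IC50 came from a 4-parameter sigmoidal fit.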

NCI-H358 (K-Ras G12C) = assay: CellTiter-Glo cell viability assay, NCI-H358; type: cell-based, human; conditions: Homo sapiens, NCI-H358, 120 h, 5-day treatment; read-out: H358 Cell Viability assay data (K-Ras G12C, IC50)
Procedure, shortened: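 NCI-H358 (K-Ras G12C) cells treated with compound dispensed directly into plates. CellTiter-Glo luminescence read on day 5 after ~30 min equilibration to room temperature. Signal normalised to DMSO average ×100, then fitted with a four-parameter logistic model.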

KRAS G12S, sequence (P01116 other isoform, or with tags, fused parts or gaps G12S): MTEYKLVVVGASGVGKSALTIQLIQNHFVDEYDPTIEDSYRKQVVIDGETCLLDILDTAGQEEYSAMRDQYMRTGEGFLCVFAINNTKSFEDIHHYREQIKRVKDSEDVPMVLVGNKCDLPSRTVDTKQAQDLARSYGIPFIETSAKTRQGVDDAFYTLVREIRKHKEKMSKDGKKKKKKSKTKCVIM
KRAS G12S, sequence (P62937 whole entry): as the sequence (P62937 whole entry) above

Structure (SMILES) | IC50 (KRAS G12S) [nM] | IC50 (NRAS G12C) [nM] | IC50 ([1]; Homo sapiens, NCI-H358, 120 h) [nM] | EC50 [2] [nM] | IC50 (NCI-H358 (K-Ras G12C)) [nM] | IC50 [1] [nM]
CCn1c(-c2cccnc2[C@H](C)OC)c2c3cc(ccc31)-c1cc(O)cc(c1)C[C@H](NC(=O)[C@H](C(C)C)N(C)C(=O)[C@H]1CCN(C(C)=O)C1)C(=O)N1CCC[C@H](N1)C(=O)OCC(C)(C)C2 [Compound A5] | 10 to 100 | 10 to 100 | 100 to 1000 | < 5000 | 10 to 100 | –
CCn1c(-c2cccnc2[C@H](C)OC)c2c3cc(ccc31)-c1csc(n1)C[C@H](NC(=O)[C@H](C(C)C)N(C)C(=O)[C@H]1CCN(C(=O)CN(C)C)C1)C(=O)N1CCC[C@H](N1)C(=O)OCC(C)(C)C2 [Compound A97] | 1000 to 10000 | 100 to 1000 | 1000 to 10000 | < 5000 | 10 to 100 | –
CCn1c(-c2cccnc2[C@H](C)OC)c2c3cc(ccc31)-c1csc(n1)C[C@H](NC(=O)[C@H](C(C)C)N(C)C(=O)C1COC1)C(=O)N1CCC[C@H](N1)C(=O)OCC(C)(C)C2 [Compound A245] | 1000 to 10000 | 1000 to 10000 | 100 to 1000 | < 5000 | < 10 | –
CCn1c(-c2cccnc2[C@H](C)OC)c2c3cc(ccc31)-c1csc(n1)C[C@H](NC(=O)[C@H](C(C)C)N(C)C(=O)N1C[C@@H](C)N(C)C[C@@H]1C)C(=O)N1CCC[C@H](N1)C(=O)OCC(C)(C)C2 [Compound A292] | 1000 to 10000 | 100 to 1000 | 100 to 1000 | < 5000 | < 10 | –
CCn1c(-c2cccnc2[C@H](C)OC)c2c3cc(ccc31)-c1csc(n1)C[C@H](NC(=O)[C@H](C(C)C)N(C)C(=O)N1CC(N3CCC3)C1)C(=O)N1CCC[C@H](N1)C(=O)OCC(C)(C)C2 [Compound A295] | 100 to 1000 | 100 to 1000 | 10 to 100 | < 5000 | < 10 | –
CCn1c(-c2cccnc2[C@H](C)OC)c2c3cc(ccc31)-c1csc(n1)C[C@H](NC(=O)[C@H](C(C)C)N1CCCN(C)C1=O)C(=O)N1CCC[C@H](N1)C(=O)OCC(C)(C)C2 [Compound A317] | 1000 to 10000 | 1000 to 10000 | 100 to 1000 | < 5000 | < 10 | –
CCN(CC)C(=O)N(C)[C@H](C(=O)N[C@H]1Cc2nc(cs2)-c2ccc3c(c2)c(c(-c2cccnc2[C@H](C)OC)n3CC)CC(C)(C)COC(=O)[C@@H]2CCCN(N2)C1=O)C(C)C [Compound A351] | 10 to 100 | 10 to 100 | 10 to 100 | < 5000 | < 10 | –
CCn1c(-c2cccnc2[C@H](C)OC)c2c3cc(ccc31)-c1csc(n1)C[C@H](NC(=O)C1CC1)C(=O)N1CCC[C@H](N1)C(=O)OCC(C)(C)C2 [Compound A367] | 100 to 1000 | 100 to 1000 | 100 to 1000 | < 5000 | 10 to 100 | –
CCn1c(-c2cccnc2[C@H](C)OC)c2c3cc(ccc31)-c1cc(O)cc(c1)C[C@H](NC(=O)[C@H](C(C)C)N(C)C(=O)[C@H]1CCN(C(=O)[C@@H](C)N(C)C)C1)C(=O)N1CCC[C@H](N1)C(=O)OCC(C)(C)C2 [Compound A386] | 10 to 100 | 10 to 100 | 100 to 1000 | < 5000 | – | –
CCn1c(-c2cccnc2[C@H](C)OC)c2c3cc(ccc31)-c1cc(O)cc(c1)C[C@H](NC(=O)[C@H](C(C)C)N(C)C(=O)[C@@H]1CCCC[C@@H]1N)C(=O)N1CCC[C@H](N1)C(=O)OCC(C)(C)C2 [Compound A395] | 10 to 100 | 10 to 100 | 100 to 1000 | < 5000 | < 10 | –
CCn1c(-c2cccnc2[C@H](C)OC)c2c3cc(ccc31)-c1csc(n1)C[C@H](NC(=O)[C@H](C(C)C)N(C)C(=O)N1CCOC[C@@H]1C)C(=O)N1CCC[C@H](N1)C(=O)OCC(C)(C)C2 [Compound A403] | 100 to 1000 | 100 to 1000 | 10 to 100 | < 5000 | < 10 | –
CCn1c(-c2cccnc2[C@H](C)OC)c2c3cc(ccc31)-c1cc(O)cc(c1)C[C@H](NC(=O)[C@H](C(C)C)N(C)C(=O)C13CC(CO1)C3)C(=O)N1CCC[C@H](N1)C(=O)OCC(C)(C)C2 [Compound A406] | 10 to 100 | 10 to 100 | 10 to 100 | < 5000 | 10 to 100 | –
CCn1c(-c2cccnc2[C@H](C)OC)c2c3cc(ccc31)-c1cc(O)cc(c1)C[C@H](NC(=O)[C@H](C(C)C)N(C)C(=O)C1CCC3(CCOC3)O1)C(=O)N1CCC[C@H](N1)C(=O)OCC(C)(C)C2 (some centres unmarked) [Compound A409] | 10 to 100 | 10 to 100 | 100 to 1000 | < 5000 | 10 to 100 | –
CCn1c(-c2cccnc2[C@H](C)OC)c2c3cc(ccc31)-c1cc(O)cc(c1)C[C@H](NC(=O)[C@H](C(C)C)N(C)C(=O)C13CCC(CO1)C3)C(=O)N1CCC[C@H](N1)C(=O)OCC(C)(C)C2 [Compound A411] | 10 to 100 | 10 to 100 | – | < 5000 | < 10 | 100 to 1000
CCn1c(-c2cccnc2[C@H](C)OC)c2c3cc(ccc31)-c1cc(O)cc(c1)C[C@H](NC(=O)[C@H](C(C)C)N(C)C(=O)[C@@H]1[C@H]3CC[C@H](C3)[C@@H]1N)C(=O)N1CCC[C@H](N1)C(=O)OCC(C)(C)C2 [Compound A417] | 100 to 1000 | 100 to 1000 | 100 to 1000 | < 5000 | 10 to 100 | –
CCn1c(-c2cccnc2[C@H](C)OC)c2c3cc(ccc31)-c1csc(n1)C[C@H](NC(=O)[C@H](C(C)C)N(C)C(=O)N1CCO[C@@]3(CCN(C)C3)C1)C(=O)N1CCC[C@H](N1)C(=O)OCC(C)(C)C2 [Compound A436] | 100 to 1000 | 10 to 100 | 10 to 100 | < 5000 | 10 to 100 | –
CCn1c(-c2cc(N3CCN(C)CC3)cnc2[C@H](C)OC)c2c3cc(ccc31)-c1csc(n1)C[C@H](NC(=O)[C@H](C(C)C)N(C)C(=O)[C@H]1CCCS1(=O)=O)C(=O)N1CCC[C@H](N1)C(=O)OCC(C)(C)C2 [Compound A439] | 1000 to 10000 | 100 to 1000 | < 10 | < 5000 | – | –
CCn1c(-c2cc(N3CCN(C)CC3)cnc2[C@H](C)OC)c2c3cc(ccc31)-c1csc(n1)C[C@H](NC(=O)[C@H](C(C)C)N(C)C(=O)[C@@H]1CCCS1(=O)=O)C(=O)N1CCC[C@H](N1)C(=O)OCC(C)(C)C2 [Compound A440] | 1000 to 10000 | 100 to 1000 | 10 to 100 | < 5000 | < 10 | –
CCn1c(-c2cccnc2[C@H](C)OC)c2c3cc(ccc31)-c1csc(n1)C[C@H](NC(=O)[C@H](C(C)C)N(C)C(=O)N1CCC[C@@H]1CN(C)C)C(=O)N1CCC[C@H](N1)C(=O)OCC(C)(C)C2 [Compound A518] | 100 to 1000 | 100 to 1000 | 10 to 100 | < 5000 | – | –
CCn1c(-c2cccnc2[C@H](C)OC)c2c3cc(ccc31)-c1csc(n1)C[C@H](NC(=O)[C@H](C(C)C)N(CCc1ccncc1)C1CC1)C(=O)N1CCC[C@H](N1)C(=O)OCC(C)(C)C2 [Compound A556] | 100 to 1000 | 100 to 1000 | 100 to 1000 | < 5000 | – | –
CCn1c(-c2cccnc2[C@H](C)OC)c2c3cc(ccc31)-c1csc(n1)C[C@H](NC(=O)[C@H](C(C)C)N(C)C(=O)N1CC[C@@H](F)[C@H](N)C1)C(=O)N1CCC[C@H](N1)C(=O)OCC(C)(C)C2 [Compound A559] | 100 to 1000 | 10 to 100 | 10 to 100 | < 5000 | – | –
CCn1c(-c2cccnc2[C@H](C)OC)c2c3cc(ccc31)-c1csc(n1)C[C@H](NC(=O)[C@H](C(C)C)N(C)C(=O)[C@@H]1OCC[C@@H]1c1ccccc1)C(=O)N1CCC[C@H](N1)C(=O)OCC(C)(C)C2 [Compound A585] | 100 to 1000 | 100 to 1000 | 10 to 100 | < 5000 | – | –
CCn1c(-c2cccnc2[C@H](C)OC)c2c3cc(ccc31)-c1cccc(c1)C[C@H](NC(=O)[C@H](C(C)C)N(C)C(=O)[C@@H]1OCC[C@@H]1c1ccccc1)C(=O)N1CCC[C@H](N1)C(=O)OCC(C)(C)C2 [Compound A586] | 100 to 1000 | 100 to 1000 | 100 to 1000 | < 5000 | – | –
CCn1c(-c2cccnc2[C@H](C)OC)c2c3cc(ccc31)-c1csc(n1)C[C@H](NC(=O)[C@H](C(C)C)N(C)C(=O)N1CCC[C@H]1c1ccccc1)C(=O)N1CCC[C@H](N1)C(=O)OCC(C)(C)C2 [Compound A599] | 1000 to 10000 | 1000 to 10000 | 1000 to 10000 | < 5000 | – | –
CCn1c(-c2cccnc2[C@H](C)OC)c2c3cc(ccc31)-c1cc(O)cc(c1)C[C@H](NC(=O)[C@H](C(C)C)N(C)C(=O)[C@]1(F)CCN(C(=O)OC)C1)C(=O)N1CCC[C@H](N1)C(=O)OCC(C)(C)C2 [Compound A616] | 100 to 1000 | 10 to 100 | 100 to 1000 | < 5000 | – | –
